Values of other authors in patent publication US12357608B2, “Methods and compositions utilizing RRx-001 combination therapy for radioprotection” (priority 2018, dated 2025).

Test system: Nrf2
Conditions: tumor cells exposed to RRx-001; Ning et al., Oncotarget 2015; cited from earlier work

O=C(CBr)N1CC([N+](=O)[O-])([N+](=O)[O-])C1 [RRx-001, 2-bromo-1-(3,3-dinitroazetidin-1-yl)ethan-1-one]
nuclear presence of transcription factor Nrf2: increased nuclear presence
